The values that follow are results of earlier work, collected in article PMC8602434 (Drugs in R&D, 2021).

One data set deals with MC1R. To be noted: read-out: half maximal effective concentration (EC50); cited from earlier work.
For data set [1] the following is noted: sc administration; cited from earlier work.
The conditions of data set [2]: sc, dose of 33 µmol/kg; cited from earlier work.

As for “α-melanocyte-stimulating hormone [α-MSH]”, in the data set on MC1R, the EC50 was 0.22 nM.

For the compound bremelanotide, in data set [1], the tmax is 0.5 to 1.0 h and the t½ was 1.9 to 2.7 h.

Consider `CCCC(=O)C1(c2ccccc2)CCN(C(=O)[C@@H](Cc2ccc(OC)cc2)NC(=O)[C@@H](N)Cc2cncn2C)CC1` [BMS-470539], for which the highest concentration (Cmax) in data set [2] is on record as 11 µM.
